Like-named read-outs stand apart in the source and are kept apart here.
Legend:
[1] = molecular target: human GABAA α2β2γ1 receptor (Homo sapiens (Human), UniProt P47869+Q8N1C3); experiment: Radioligand binding assay, competition for [3H]RO7239181, membranes from HEK293F cells
[2] = molecular target: human GABAA α5β2γ1 receptor (Homo sapiens (Human), UniProt P31644+Q8N1C3); experiment: as above
[3] = molecular target: human GABAA α1β3γ2 receptor (Homo sapiens (Human), UniProt P14867+P18507); experiment: Radioligand binding assay, competition for [3H]Flumazenil, HEK293F cells; conditions: for γ2/γ1 Selectivity Ratio: Ki α1β3γ2 (nM)/Ki α2β2γ1 (nM); for LogSel: Log[Ki α1β3γ2 (nM)/Ki α2β2γ1 (nM)]
[4] = read-out: Ki h-GABAA α2β2γ1, [3H]RO7239181 20-30 nM, HEK293F membranes, 1 hour at 4° C., mean of two determinations

Cc1cn2c(n1)[C@H](C)N=C(c1nc(O)ccc1F)c1c-2ccc(C(F)(F)F)c1Cl [Example 28, 6-[(4S)-7-chloro-2,4-dimethyl-8-(trifluoromethyl)-4H-imidazo[1,2-a][1,4]benzodiazepin-6-yl]-5-fluoro-pyridin-2-ol]
Ki [1]: 5.28 nM
Ki [1, 4]: 5.28 nM
Ki [2]: 2.07 nM
Ki [3]: 4080 nM
γ2/γ1 Selectivity Ratio [3]: 772.7
LogSel [3]: 2.89

Cc1nnc2n1-c1ccc(C(F)(F)F)c(Cl)c1C(c1cc(O)ccc1F)=N[C@H]2C [Example 17, 4-fluoro-3-[(4S)-7-chloro-1,4-dimethyl-8-(trifluoromethyl)-4H-[1,2,4]triazolo[4,3-a][1,4]benzodiazepin-6-yl]phenol]
Ki [1]: 1.75 nM
Ki [1, 4]: 1.75 nM
Ki [2]: 0.99 nM
Ki [3]: 68.8 nM
γ2/γ1 Selectivity Ratio [3]: 39.3
LogSel [3]: 1.59

CN1C(=O)CN=C(c2cc(O)ccc2F)c2c1ccc(Cl)c2Cl [Example 1, 6,7-dichloro-5-(2-fluoro-5-hydroxy-phenyl)-1-methyl-3H-1,4-benzodiazepin-2-one]
Ki [1]: 2.27 nM
Ki [1, 4]: 2.27 nM
Ki [2]: 0.34 nM
Ki [3]: 28.7 nM
LogSel [3]: 1.1
Ki ([3]; read-out: Ki h-GABAA α1β3γ2, [3H]Flumazenil 1 nM, HEK293F membranes, 1 hour at 4° C., mean of two determinations): 28.7 nM

C[C@@H]1N=C(c2nc(O)ccc2F)c2c(ccc(C(F)(F)F)c2Cl)-n2c1nc1c2CCC1 [Example 24, 6-[(10S)-6-chloro-10-methyl-5-(trifluoromethyl)-1,9,12-triazatetracyclo[9.6.0.02,7.013,17]heptadeca-2(7),3,5,8,11,13(17)-hexaen-8-yl]-5-fluoro-pyridin-2-ol]
Ki [1]: 6.61 nM
Ki [1, 4]: 6.61 nM
Ki [2]: 8.6 nM
Ki [3]: 4190 nM
γ2/γ1 Selectivity Ratio [3]: 634.3
LogSel [3]: 2.80
